From ChEMBL document CHEMBL1133334, “Synthesis and pharmacology of new enantiopure delta(3)-4-arylkainoids” (Bioorg Med Chem Lett, 2000)

Biological target: Glutamate NMDA receptor
Experiment: Compound was tested for agonistic activity at the N-methyl-D-aspartate glutamate receptor obtained from the rat cortical wedge preparation
Type: functional
Conditions: read-out: KD app

Q: `O=C(O)CC1=C(c2ccccc2)CN[C@@H]1C(=O)O` was tested. Which Kd did it give?
A: 560 µM

Q: `O=C(O)CC1=C(c2ccoc2)CN[C@@H]1C(=O)O` was tested. Which Kd did it give?
A: 85 µM

Q: How did the Kd turn out when `O=C(O)CC1=C(c2cccs2)CN[C@@H]1C(=O)O` was run?
A: 20 µM

Q: How did the Kd turn out when `COc1ccccc1C1=C(CC(=O)O)[C@@H](C(=O)O)NC1` was run?
A: 380 µM

Q: For `O=C(O)CC1=C(c2ccsc2)CN[C@@H]1C(=O)O`, which Kd is on record?
A: 45 µM

Q: Which Kd does the source give for `O=C(O)CC1=C(c2ccc3ccccc3c2)CN[C@@H]1C(=O)O` here?
A: 250 µM

Q: Which Kd does the source give for `O=C(O)CC1=C(c2ccco2)CN[C@@H]1C(=O)O` here?
A: 70 µM
